According to article PMC8151276, “An Integrated Approach toward NanoBRET Tracers for Analysis of GPCR Ligand Engagement” (Molecules, 2021):

Assays:
Assay type in all cases: binding
P2RY4 = biological target: T1, P2RY4 (Homo sapiens, UniProt P51582); experiment: NanoBRET screen HiBiT-P2RY4 in HEK293; details: P2RY4
T1 construct: purchased Promega (in-house HiBiT-GPCR construct library, NanoBRET)
Protocol: (§1) Each tracer candidate was screened across the entire library of HiBiT-GPCR constructs using NanoBRET as the detection modality. As depicted in Figure 4A, the specificity of interactions was evaluated through decrease in BRET due to competitive displacement of a bound tracer by excess parental compound. Each tracer was analyzed for binding to each HiBiT-GPCR fusion in the absence and in the presence of competing parental compound. Briefly, HEK293 cells were transfected with HiBiT-GPCR constructs diluted into promoterless DNA to reduce expression and maximize translocation to the cell surface. Each tracer candidate was then screened at concentrations of 1 μM and 0.1 μM across cells expressing these fusions. Cells were treated for 1.5 h with tracer either alone or in the presence of 20 μM competing parental compound (i.e., control). BRET was measured upon addition of purified LgBiT and subsequent complementation with HiBiT genetically fused to a GPCR. The specificity of interactions was assessed through a decrease in BRET signal due to competitive displacement of the bound tracer. To further gauge the robustness of these interactions, the fold response over the control (i.e., BRETtracer/BRETcontrol) was calculated. We chose a 1.5-fold response, which translates to ≥7-fold signal over noise as the minimal threshold required to score an interaction as positive. […]. Below we highlight the screening results obtained for our exemplary fluorescent tracers based on Clozapine, Amitriptyline and AZD1283.
(§2) HiBiT-GPCR DNA constructs were diluted in 10 mM Tris pH 8 to a final concentration of 0.01 μg/μL, arrayed in 96-well plates and stored at −20 °C. For transfection, HEK293 cells were suspended in Opti-MEM (without phenol red) supplemented with 2% fetal bovine serum (Seradigm) and 100 units/mL penicillin–streptomycin (Gibco) at a final concentration of 220,000 cells/mL and dispensed into white 96-well plates at 90 μL/well. Subsequent transfections and screens were carried using an Agilent Bravo Automated Liquid Handling Platform. First, the 96-well HiBiT DNA arrays were diluted 25-fold in Opti-MEM (without serum or phenol red) to a final concentration of 0.0004 μg/μL and 20 μL of the diluted DNAs were transferred into new 96-well plates. Next, promoterless carrier DNA (1 μg/μL) was diluted 25-fold (0.04 μg/μL) and then dispensed into the diluted arrays at 20 μL/well. Following brief mixing, Viafect transfection reagent (Promega) diluted 16-fold into Opti-MEM was dispensed into the plates at 40 μL/well. After mixing by pipetting, plates were incubated for 10 min on the pipetting station deck. The DNA-transfection reagent complexes were then added to plates containing cells. To facilitate the screen, 10 μL of DNA-transfection reagent complexes were added in duplicates to the top 4 and bottom 4 rows, resulting in two identical 48-well arrays per plate. Plates with transfected cells were incubated for 18–20 h at 37 °C/5% CO2. A screen of each tracer across the entire library using two different concentrations requires duplicate plates of transfected cells. Depending on the number of tracers being screened, transfections can be scaled up using the same ratios. The next day, for each tracer, four 20× screening solutions in tracer dilution buffer (Promega) were prepared: two duplicates at final concentration of 20 μM and two duplicates at a final concentration of 2 μM. A competing unmodified compound was added to one of each duplicate at a final concentration of 400 μM. The four resulting solutions were diluted 4-fold in Opti-MEM without serum or phenol red to generate 5× solutions (5 µM and 0.5 µM tracer +/− 100 μM competing compound). To screen the library, a BioTek MultiFlo FX liquid dispenser was used to dispense 22.5 µL of tracer solution to the top 4 rows and 22.5 µL tracer + competing compound solution to the 4 bottom rows. Plates were briefly mixed on an orbital shaker and incubated for 1.5 h at room temperature. […]

HTR4 = biological target: T2, HTR4 (Homo sapiens, UniProt Q13639); experiment: NanoBRET screen HiBiT-HTR4 in HEK293; details: HTR4
T2 construct: purchased Promega (in-house HiBiT-GPCR construct library, NanoBRET)
Protocol: as §1, §2

CCR4 = biological target: T3, CCR4 (Homo sapiens, UniProt P51679); experiment: NanoBRET screen HiBiT-CCR4 in HEK293; details: CCR4
T3 construct: purchased Promega (in-house HiBiT-GPCR construct library, NanoBRET)
T3 sequence (P51679 1-360): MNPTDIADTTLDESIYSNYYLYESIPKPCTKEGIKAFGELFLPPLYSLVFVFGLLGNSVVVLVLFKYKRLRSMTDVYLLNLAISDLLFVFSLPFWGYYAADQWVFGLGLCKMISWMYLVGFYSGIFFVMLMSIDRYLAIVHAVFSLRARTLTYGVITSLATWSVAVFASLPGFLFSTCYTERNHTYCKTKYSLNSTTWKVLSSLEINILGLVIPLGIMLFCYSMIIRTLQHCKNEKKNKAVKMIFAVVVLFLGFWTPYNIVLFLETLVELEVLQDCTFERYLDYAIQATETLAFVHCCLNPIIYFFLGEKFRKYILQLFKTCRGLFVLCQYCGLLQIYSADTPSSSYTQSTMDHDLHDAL
Protocol: as §1, §2

T1 sequence (P51582 whole entry): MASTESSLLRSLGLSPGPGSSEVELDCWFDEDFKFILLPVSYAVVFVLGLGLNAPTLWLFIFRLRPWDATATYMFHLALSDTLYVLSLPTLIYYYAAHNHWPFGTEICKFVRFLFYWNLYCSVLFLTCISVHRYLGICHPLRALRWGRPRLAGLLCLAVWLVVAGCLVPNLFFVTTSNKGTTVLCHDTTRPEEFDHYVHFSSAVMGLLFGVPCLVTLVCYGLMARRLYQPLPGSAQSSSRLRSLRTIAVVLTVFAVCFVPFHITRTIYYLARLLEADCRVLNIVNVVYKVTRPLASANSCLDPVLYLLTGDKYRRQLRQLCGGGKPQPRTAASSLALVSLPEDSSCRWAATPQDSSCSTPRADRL
T2 sequence (Q13639 whole entry): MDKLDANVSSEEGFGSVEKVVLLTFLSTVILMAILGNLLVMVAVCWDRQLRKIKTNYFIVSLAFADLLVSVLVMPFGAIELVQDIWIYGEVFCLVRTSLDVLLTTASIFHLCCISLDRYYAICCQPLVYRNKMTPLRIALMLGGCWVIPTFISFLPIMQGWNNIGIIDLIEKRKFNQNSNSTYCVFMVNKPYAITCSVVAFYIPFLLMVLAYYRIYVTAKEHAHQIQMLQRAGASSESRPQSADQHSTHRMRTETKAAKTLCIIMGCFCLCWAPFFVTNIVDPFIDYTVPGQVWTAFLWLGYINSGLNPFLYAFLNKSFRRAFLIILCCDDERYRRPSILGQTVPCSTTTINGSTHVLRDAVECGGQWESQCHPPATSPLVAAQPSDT

| SMILES | NanoBRET Fold Response (P2RY4; tracer 0.1μM) | NanoBRET Fold Response (P2RY4; tracer 1μM) | NanoBRET Fold Response (HTR4; tracer 0.1μM) | NanoBRET Fold Response (HTR4; tracer 1μM) | NanoBRET Fold Response (CCR4; tracer 0.1μM) | NanoBRET Fold Response (CCR4; tracer 1μM) |
| --- | --- | --- | --- | --- | --- | --- |
| O=C(CCc1ccc2n1[B-](F)(F)[N+]1=C(c3ccc[nH]3)C=CC1=C2)NCCOCCOCCNC(=O)OCCOCCN1CCN(C2=Nc3ccccc3Sc3ccccc32)CC1 [Quetiapine-a-2-NB590] | 1.05 | 0.84 | 0.98 | 1.00 | 1.02 | 0.94 |
| Cc1nc2n(c(=O)c1CCN1CCC(c3noc4cc(F)ccc34)CC1)CCCC2OC(=O)NCCOCCOCCOCCOCCNC(=O)CCc1ccc2n1[B-](F)(F)[N+]1=C(c3ccc[nH]3)C=CC1=C2 (stereo not drawn) [Risperidone-2-NB590] | 1.08 | 0.90 | 1.08 | 1.51 | 1.01 | 1.22 |
| CC(C)N(CC[C@H](c1ccccc1)c1cc(CCNC(=O)CCOCCOCCOCCOCCNC(=O)CCc2ccc3n2[B-](F)(F)[N+]2=C(c4ccc[nH]4)C=CC2=C3)ccc1O)C(C)C [Tolterodine-2-NB590] | 1.08 | 0.94 | 0.92 | 1.00 | 1.29 | 1.16 |
| CC(C)N(CC[C@H](c1ccccc1)c1cc(CCNC(=O)c2ccc(CNC(=O)CCc3ccc4n3[B-](F)(F)[N+]3=C(c5ccc[nH]5)C=CC3=C4)cc2)ccc1O)C(C)C [Tolterodine-BZ-NB590] | 0.97 | 1.08 | 0.94 | 0.99 | 0.95 | 0.86 |
| CCCn1c(=O)c2[nH]c(-c3ccc(OCC(=O)NCCNC(=O)CCOCCNC(=O)c4ccc(CNC(=O)CCc5ccc6n5[B-](F)(F)[N+]5=C(c7ccc[nH]7)C=CC5=C6)cc4)cc3)nc2n(CCC)c1=O [XAC-3-NB590] | 1.07 | 0.79 | 1.03 | 1.09 | 1.36 | 1.29 |
